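In this assay, cells in 96-well plates receive the compound at five concentrations for 48 hours. Endpoints are linearly interpolated between the surrounding concentrations. The concentration for 50% growth inhibition is given as GI50. TGI is the concentration that stops growth completely.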
Tests used:
Assay in all cases: NCI tumour cell line growth inhibition, 48 h
PC-3 prostate = tested on: PC-3 prostate
SK-MEL-2 melanoma = tested on: SK-MEL-2 melanoma
COLO 205 colon = tested on: COLO 205 colon
M14 melanoma = tested on: M14 melanoma
SR leukemia = tested on: SR leukemia
NCI-H522 lung = tested on: NCI-H522 lung
SN12K1 renal = tested on: SN12K1 renal
P388/ADR leukemia = tested on: P388/ADR leukemia
MALME-3M melanoma = tested on: MALME-3M melanoma
M19-MEL melanoma = tested on: M19-MEL melanoma
DMS 273 small cell lung = tested on: DMS 273 small cell lung
MDA-N = tested on: MDA-N

CCCCCCCCCCCCCC[n+]1ccc(C)cc1
GI50 (PC-3 prostate): 0.455 µM | TGI (PC-3 prostate): 2.63 µM | GI50 (SK-MEL-2 melanoma): 1.33 µM | TGI (SK-MEL-2 melanoma): 2.83 µM | GI50 (COLO 205 colon): 1.22 µM | TGI (COLO 205 colon): 2.67 µM | GI50 (M14 melanoma): 0.345 µM | TGI (M14 melanoma): 1.25 µM | GI50 (SR leukemia): 0.581 µM | TGI (SR leukemia): 2.67 µM

O=C(O)/C=C/c1c[nH]c(=O)[nH]c1=O
TGI (NCI-H522 lung): > 500 µM | TGI (SN12K1 renal): > 500 µM | TGI (P388/ADR leukemia): > 500 µM | TGI (MALME-3M melanoma): > 500 µM | TGI (M19-MEL melanoma): > 500 µM | TGI (SK-MEL-2 melanoma): > 500 µM | TGI (COLO 205 colon): > 500 µM | TGI (DMS 273 small cell lung): > 500 µM

COc1ccc(-c2c(-c3ccccc3)c(C)nc3nc(SC)nc(SC)c23)cc1OC
TGI (NCI-H522 lung): 35.4 µM | TGI (PC-3 prostate): 41.7 µM | TGI (MALME-3M melanoma): 38.5 µM | TGI (MDA-N): > 100 µM | TGI (SK-MEL-2 melanoma): 60.6 µM | TGI (COLO 205 colon): 27.9 µM | TGI (M14 melanoma): > 100 µM | TGI (SR leukemia): 2.6 µM

CC12CCC(CC1)C(C)(C)O2
TGI (NCI-H522 lung): 77.3 µM | TGI (SN12K1 renal): 110 µM | TGI (P388/ADR leukemia): 42.6 µM | TGI (MALME-3M melanoma): 122 µM | TGI (M19-MEL melanoma): 64.5 µM | TGI (SK-MEL-2 melanoma): 118 µM | TGI (COLO 205 colon): 99.6 µM | TGI (DMS 273 small cell lung): 18.3 µM

CC(C)c1ccccc1SCc1cc(=O)cc(CSc2ccccc2C(C)C)o1
TGI (PC-3 prostate): 30.7 µM | TGI (MALME-3M melanoma): 44.4 µM | TGI (MDA-N): 44.9 µM | TGI (SK-MEL-2 melanoma): 34.5 µM | TGI (COLO 205 colon): > 100 µM | TGI (M14 melanoma): 49.5 µM | TGI (SR leukemia): > 100 µM

Cc1cccc(N2C(=O)C3c4[nH]c5ccc(C)cc5c4C4CCC(C(C)(C)C)CC4C3C2=O)c1 (stereo not given)
TGI (NCI-H522 lung): 45.7 µM | TGI (PC-3 prostate): 31.3 µM | TGI (MALME-3M melanoma): 71.2 µM | TGI (SK-MEL-2 melanoma): > 100 µM | TGI (COLO 205 colon): > 100 µM | TGI (M14 melanoma): > 100 µM

CSc1nc(N)c2c(-c3ccccc3)c3c(nc2n1)CCCC3
TGI (PC-3 prostate): > 100 µM | TGI (MALME-3M melanoma): > 100 µM | TGI (MDA-N): > 100 µM | TGI (COLO 205 colon): > 100 µM | TGI (M14 melanoma): > 100 µM | TGI (SR leukemia): > 100 µM

C=C1C(=O)OC2CC(C)C3C4OC4C(O)C3(C)C(O)C12 (stereo not given)
TGI (NCI-H522 lung): 26.4 µM | TGI (SN12K1 renal): 70.8 µM | TGI (P388/ADR leukemia): 49.3 µM | TGI (MALME-3M melanoma): 67.1 µM | TGI (M19-MEL melanoma): 69.7 µM | TGI (SK-MEL-2 melanoma): 72.7 µM | TGI (COLO 205 colon): 51.6 µM | TGI (DMS 273 small cell lung): 67.2 µM

C=C=CC(NC(=O)c1ccccc1)(C(=O)O)C(F)(F)F (stereo not given)
TGI (MALME-3M melanoma): > 100 µM | TGI (SK-MEL-2 melanoma): > 100 µM | TGI (COLO 205 colon): > 100 µM | TGI (M14 melanoma): > 100 µM | TGI (SR leukemia): > 100 µM | TGI (DMS 273 small cell lung): > 100 µM

C/C(N=NS(=O)(=O)c1ccc([N+](=O)[O-])cc1)=C1\C=CC=CN1O
TGI (NCI-H522 lung): > 100 µM | TGI (M19-MEL melanoma): > 100 µM | TGI (M14 melanoma): > 100 µM | TGI (SR leukemia): > 100 µM | TGI (DMS 273 small cell lung): > 100 µM

CCCCOP(C)(=O)C(NC(=O)OCC)(C(F)(F)F)C(F)(F)F (stereo not given)
TGI (NCI-H522 lung): > 100 µM | TGI (PC-3 prostate): > 100 µM | TGI (MALME-3M melanoma): > 100 µM | TGI (MDA-N): > 100 µM | TGI (SK-MEL-2 melanoma): > 100 µM | TGI (COLO 205 colon): > 100 µM | TGI (M14 melanoma): > 100 µM | TGI (SR leukemia): > 100 µM

O=C1/C(=C/c2ccc(O)cc2)COc2ccc(O)c(O)c21
GI50 (NCI-H522 lung): 0.187 µM | TGI (NCI-H522 lung): 0.596 µM | GI50 (PC-3 prostate): 2.48 µM | TGI (PC-3 prostate): 13 µM | GI50 (MALME-3M melanoma): 1.76 µM | TGI (MALME-3M melanoma): 4.58 µM | GI50 (SK-MEL-2 melanoma): 6.21 µM | TGI (SK-MEL-2 melanoma): 38.6 µM | GI50 (M14 melanoma): 3.43 µM | TGI (M14 melanoma): 20.1 µM | GI50 (SR leukemia): 1.1 µM | TGI (SR leukemia): > 100 µM

O=C(SCc1cccc2ccccc12)c1ccc(Cl)cc1
TGI (NCI-H522 lung): > 100 µM | TGI (PC-3 prostate): > 100 µM | TGI (MALME-3M melanoma): > 100 µM | TGI (MDA-N): > 100 µM | TGI (SK-MEL-2 melanoma): > 100 µM | TGI (COLO 205 colon): > 100 µM | TGI (M14 melanoma): > 100 µM | TGI (SR leukemia): > 100 µM
